In paper PMC8279414, “Discovery and Synthesis of a Pyrimidine-Based Aurora Kinase Inhibitor to Reduce Levels of MYC Oncoproteins” (Journal of Medicinal Chemistry, 2021):

What was measured:
[1] = test system: NCI-H446 xenograft tumors; assay: In vivo xenograft tumor growth inhibition; design: species or system mice
Protocol: (§1) Male athymic nu/nu nude mice (BioLASCO, Taiwan) 6 weeks old were housed in sterile cages maintained under 12 h light/dark cycles with controlled temperature and humidity. Mice were inoculated subcutaneously with 1 × 10^6 NCI–H446 cells (ATCC@ HTB-171) resuspended in saline mixed with 50% Matrigel matrix (Corning, USA). The sizes of the xenografted tumors were measured by a digital caliper (GMC-190; Goldsun Electronics Co.) and calculated using the formula: tumor volume (mm^3) = length × (width)2/2. Body weight and tumor size were measured at least twice a week. When the xenograft tumor reached ≥200 mm^3 in size, mice were intravenous or orally administered with the vehicle (5% dimethylacetamide/95% PEG400) or the compounds on a 5-on-2-off dosing regimen for 2–4 weeks. Tumor growth was analyzed for a statistically significant difference using ANOVA, followed by the Student–Newman–Keuls test. P < 0.05 was considered a significant difference between groups.

[2] = test system: pH3(Ser10) in NCI-H446 xenograft tumors; assay: In vivo target validation: phosphorylation of histone H3 at Ser10 in tumors (western blot); design: species or system mice; settings: single oral dose 100 mg/kg, 2 h after drug administration
Protocol: (§2) Tumors were harvested after 2, 4, 8, and 24 h of the treatment, respectively (Figure 4A). Whole tumor tissues were collected for western blotting and immunohistochemistry (IHC) analyses. […] The western blot result of phosphorylated Aurora A/B/C was not provided due to the inability of detecting the signal in the tumor tissues.
The efficacy of a compound in reducing the MYC protein level and in inducing cell apoptosis was assessed using an NCI-H446 xenograft tumorigenicity mouse model. Six-week-old male athymic nu/nu nude mice (BioLASCO, Taiwan) were inoculated subcutaneously with 1 × 10^6 NCI-H446 cells resuspended in saline mixed with 50% Matrigel matrix (Corning, USA). […] Tumors were harvested after 2, 4, 8, and 24 h of drug treatment, respectively. Half of the tumor was cryopreserved and then subjected to western analysis; the other half was fixed in 10% formalin and then embedded in paraffin. For immunohistochemistry, tissue paraffin sections were deparaffinized using xylene and ethanol. After rehydration, antigen retrieval was achieved by placing the slides in 100 °C citrate buffer, pH 6.0 for 1 h. Endogenous peroxides were quenched by 0.5% H2O2 for 10 min. Slides were blocked with 3% BSA for 30 min and then incubated with a rabbit anticleaved Caspase-3 antibody (Cell signaling, 9661S) at room temperature for 1.5 h. […]

[3] = test system: cleaved Caspase-3 (CASP3) in NCI-H446 xenograft tumors; assay: In vivo target validation: cleaved Caspase-3 immunohistochemistry; design: species or system mice; settings: single oral dose 100 mg/kg
Protocol: (§3) Apoptosis was assessed using levels of PARP-1, one of several known cellular substrates of caspases; cleavage of PARP-1 by caspases is considered a hallmark of apoptosis.[44]
(§4) The efficacy of a compound in reducing the MYC protein level and in inducing cell apoptosis was assessed using an NCI-H446 xenograft tumorigenicity mouse model. Six-week-old male athymic nu/nu nude mice (BioLASCO, Taiwan) were inoculated subcutaneously with 1 × 10^6 NCI-H446 cells resuspended in saline mixed with 50% Matrigel matrix (Corning, USA). […] Tumors were harvested after 2, 4, 8, and 24 h of drug treatment, respectively. Half of the tumor was cryopreserved and then subjected to western analysis; the other half was fixed in 10% formalin and then embedded in paraffin. For immunohistochemistry, tissue paraffin sections were deparaffinized using xylene and ethanol. After rehydration, antigen retrieval was achieved by placing the slides in 100 °C citrate buffer, pH 6.0 for 1 h. Endogenous peroxides were quenched by 0.5% H2O2 for 10 min. Slides were blocked with 3% BSA for 30 min and then incubated with a rabbit anticleaved Caspase-3 antibody (Cell signaling, 9661S) at room temperature for 1.5 h. After three washes with 1× PBS, a goat antirabbit HRP-polymer (Biocare Medical, USA) was added, followed by development of the color using 3,3′-diaminobenzidine substrate chromogen (Biocare Medical, USA). […]

[4] = test system: cMYC in NCI-H446 xenograft tumors; assay: In vivo target validation: cMYC protein level in tumors (western blot); design: species or system mice; settings: single oral dose 100 mg/kg
Protocol: as §2
The efficacy of a compound in reducing the MYC protein level and in inducing cell apoptosis was assessed using an NCI-H446 xenograft tumorigenicity mouse model. Six-week-old male athymic nu/nu nude mice (BioLASCO, Taiwan) were inoculated subcutaneously with 1 × 10^6 NCI-H446 cells resuspended in saline mixed with 50% Matrigel matrix (Corning, USA). […] Tumors were harvested after 2, 4, 8, and 24 h of drug treatment, respectively. Half of the tumor was cryopreserved and then subjected to western analysis; the other half was fixed in 10% formalin and then embedded in paraffin. For immunohistochemistry, tissue paraffin sections were deparaffinized using xylene and ethanol. After rehydration, antigen retrieval was achieved by placing the slides in 100 °C citrate buffer, pH 6.0 for 1 h. Endogenous peroxides were quenched by 0.5% H2O2 for 10 min. Slides were blocked with 3% BSA for 30 min and then incubated with a rabbit anticleaved Caspase-3 antibody (Cell signaling, 9661S) at room temperature for 1.5 h. After three washes with 1× PBS, a goat antirabbit HRP-polymer (Biocare Medical, USA) was added, followed by development of the color using 3,3′-diaminobenzidine substrate chromogen (Biocare Medical, USA). The nucleus was stained with hematoxylin.

[5] = Body weight of xenograft mice during treatment; type: in vivo; settings: PO 100 mg/kg, 4-week dosing period
Protocol: as §1

[6] = test system: cleaved PARP-1 (cPARP-1) in NCI-H446 xenograft tumors; assay: In vivo target validation: cleaved PARP-1 in tumors (western blot); design: species or system mice; settings: single oral dose 100 mg/kg, after 24 h
Protocol: as §3, §4

[7] = biological target: T1, human Aurora A (amino acids 123–401) (Homo sapiens, UniProt O14965); assay: In vitro inhibition of Aurora A kinase activity (Kinase-Glo Plus Luminescent Kinase assay, ATP consumption); type: biochemical; settings: mean of 2–3 independent determinations ± SD; >100 = inhibition < 50% at 100 nM
T1 construct: N-terminal truncated human Aurora A (amino acids 123–401); GST; made in house; host or cells: Sf9 insect cells
T1 sequence (O14965 123-401): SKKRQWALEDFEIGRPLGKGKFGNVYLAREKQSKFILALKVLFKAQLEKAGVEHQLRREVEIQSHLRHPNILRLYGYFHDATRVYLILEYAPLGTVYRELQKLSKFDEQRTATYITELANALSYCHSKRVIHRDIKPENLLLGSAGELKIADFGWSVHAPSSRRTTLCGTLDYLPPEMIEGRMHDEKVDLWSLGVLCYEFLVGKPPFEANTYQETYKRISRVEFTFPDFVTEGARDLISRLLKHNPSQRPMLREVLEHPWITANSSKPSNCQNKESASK
Protocol: The inhibitory potency of the newly synthesized small molecules against Aurora A was first measured in ATP consumption assays using purified Aurora A protein.
The efficacy of the compounds as inhibitors of Aurora A kinase was assessed in vitro using the Kinase-Glo Plus Luminescent Kinase assay (Promega, USA), as described previously.[45] […] The resulting mixture was incubated at 25 °C for 20 min. A 70 μL aliquot of the mixture was transferred to a black microtiter plate.

cMYC in NCI-H82 = assay: Western blot analysis of cMYC protein level in NCI-H82 cells; type: cell-based; settings: 1.0 μM of compound, 24 h, mean ± SD, triplicate
Protocol: (§5) Cancer cells were treated with each of the compounds at different compound concentrations. […] Each lysate was separated by sodium dodecyl sulfate polyacrylamide gel electrophoresis (SDS-PAGE), transferred to polyvinylidene fluoride (PVDF, Millipore, USA) membrane, and blotted with antibodies. […] After the blotting (0.2% casein, 1% BSA, or 5% nonfat milk), membranes were washed with blotting buffer (0.2% casein in 1× PBS or 1× TBST), and corresponding alkaline phosphatase (AP)- or horseradish peroxidase (HRP)-conjugated secondary antibodies (Sigma-Aldrich) were added. The blots were developed by chemiluminescence (PerkinElmer, USA).

MYCN in SK-N-BE(2) = assay: Western blot analysis of MYCN protein level in SK-N-BE(2) cells; type: cell-based; settings: 1.0 μM of compound, 24 h, mean ± SD, triplicate
Protocol: as §5

[8] = PO, 5-on-2-off, after end of dosing

Compound | shrinkage of tumors with volume >750 mm^3 ([1]; PO 100 mg/kg, 5-on-2-off, 2 weeks) | tumor volume regression ([1]; PO 100 mg/kg, 5-on-2-off, four consecutive weeks) [%] | xenografted tumors remained stable after the last dosage [1, 8] [days] | anticancer activity in NCI-H446 xenograft tumor model ([1]; oral administration, 5-on-2-off regimen) | reduction of phosphorylation level of histone H3 at Ser10 [2] [%] | incidence of cleaved Caspase-3 (CASP3), IHC [3] | cMYC protein level relative to vehicle-treated tumors ([4]; 24 h after dosing) | relative cMYC protein level in tumors ([4]; 24 h post-treatment, vehicle 1.0 ± 0.230) | body weight change [5] | cleaved PARP-1 (cPARP-1) levels in tumor tissues [6] | IC50 [7] [nM] | NCI-H82 cMYC, relative protein level (cMYC in NCI-H82) | SK-N-BE(2) MYCN, relative protein level (MYCN in SK-N-BE(2)) | tumors started to grow, day after the last dosage [1, 8] [days] | effect on the cMYC level in tumors ([4]; 2–24 h)
CCC(=O)n1nc(C)cc1Nc1cc(N2CCN(CC)CC2)nc(N[C@H]2CCN(C(=O)c3ccc(Cl)cc3F)C2)n1 [Compound 25, (S)-1-(5-((2-((1-(4-Chloro-2-fluorobenzoyl)pyrrolidin-3-yl)amino)-6-(4-ethylpiperazin-1-yl)pyrimidin-4-yl)amino)-3-methyl-1H-pyrazol-1-yl)propan-1-one] | great potency to shrink tumors | > 80 | 44 | dose-dependent anticancer activity | > 90 | greatly increased | around 37% | 0.374 ± 0.204 | less than 5% | significantly upregulated | – | – | – | – | –
CCN1CCN(c2cc(Nc3cc(C)[nH]n3)nc(N[C@H]3CCN(C(=O)c4c(F)cc(Cl)cc4F)C3)n2)CC1 [Compound 15, (S)-(4-Chloro-2,6-difluorophenyl) (3-((4-(4-ethylpiperazin-1-yl)-6-((5-methyl-1H-pyrazol-3-yl)amino)pyrimidin-2-yl)amino)pyrrolidin-1-yl)methanone] | – | – | – | – | – | – | – | – | – | – | 56.7 ± 3.9 | 1.153 ± 0.158 | 0.757 ± 0.121 | – | –
COc1cc(Nc2ncc3c(n2)-c2ccc(Cl)cc2C(c2c(F)cccc2OC)=NC3)ccc1C(=O)O [MLN8237, reference compound] | – | – | – | – | > 90 | – | – | – | – | significantly upregulated | – | – | – | 22 | marginal effect
